The NIST ThermoML archive (doi:10.1021/je020120h)

Assays:
[1] = 298.15 K; 101.33 kPa; Liquid; Vibrating tube method
[2] = excess molar enthalpy (molar enthalpy of mixing); xn = mol fraction of the nth substance listed; conditions: 298.15 K, 101.3 kPa, Liquid, Flow calorimetry

Cc1ccccc1C [1,2-dimethylbenzene]
Conditions	mass density [kg/m3]
[1]	875

Cc1ccccc1C [1,2-dimethylbenzene] + COC(=O)OC
[2]
Conditions	excess molar enthalpy [kcal/mol]
x2 = 0.0511	0.0266
x2 = 0.1006	0.0553
x2 = 0.1503	0.0795
x2 = 0.2016	0.0932
x2 = 0.2513	0.106
x2 = 0.3024	0.125
x2 = 0.3519	0.137
x2 = 0.3998	0.147
x2 = 0.4514	0.153
x2 = 0.5013	0.155
x2 = 0.5519	0.153
x2 = 0.6007	0.149
x2 = 0.6502	0.142
x2 = 0.7002	0.132
x2 = 0.7504	0.12
x2 = 0.8008	0.104
x2 = 0.8513	0.0841
x2 = 0.8998	0.0605
x2 = 0.9501	0.0322

Cc1cccc(C)c1 [1,3-dimethylbenzene]
Conditions	mass density [kg/m3]
[1]	860

Cc1cccc(C)c1 [1,3-dimethylbenzene] + COC(=O)OC
[2]
Conditions	excess molar enthalpy [kcal/mol]
x2 = 0.0502	0.0299
x2 = 0.1006	0.0579
x2 = 0.151	0.0824
x2 = 0.2014	0.102
x2 = 0.2517	0.119
x2 = 0.3004	0.133
x2 = 0.3503	0.144
x2 = 0.4014	0.153
x2 = 0.4506	0.158
x2 = 0.5007	0.16
x2 = 0.5515	0.16
x2 = 0.6004	0.156
x2 = 0.6522	0.149
x2 = 0.7018	0.14
x2 = 0.7517	0.127
x2 = 0.8017	0.109
x2 = 0.8517	0.0878
x2 = 0.9015	0.063
x2 = 0.9509	0.0337

Cc1ccc(C)cc1 [1,4-dimethylbenzene]
Conditions	mass density [kg/m3]
[1]	856.7

Cc1ccc(C)cc1 [1,4-dimethylbenzene] + COC(=O)OC
[2]
Conditions	excess molar enthalpy [kcal/mol]
x2 = 0.0504	0.0295
x2 = 0.101	0.0543
x2 = 0.1515	0.0837
x2 = 0.202	0.102
x2 = 0.2529	0.119
x2 = 0.3012	0.133
x2 = 0.3512	0.145
x2 = 0.4022	0.153
x2 = 0.4515	0.159
x2 = 0.5016	0.161
x2 = 0.5524	0.16
x2 = 0.6013	0.156
x2 = 0.6507	0.149
x2 = 0.7004	0.139
x2 = 0.7503	0.125
x2 = 0.8003	0.109
x2 = 0.8502	0.0879
x2 = 0.9018	0.0621
x2 = 0.9511	0.033

COC(=O)OC [dimethyl carbonate]
Conditions	mass density [kg/m3]
[1]	1063.1

CCOC(=O)c1ccccc1 [ethyl benzoate]
Conditions	mass density [kg/m3]
[1]	1041.3

CCOC(=O)c1ccccc1 [ethyl benzoate] + COC(=O)OC
[2]
Conditions	excess molar enthalpy [kcal/mol]
x2 = 0.05	0.0138
x2 = 0.0999	0.0284
x2 = 0.1497	0.0413
x2 = 0.1991	0.0541
x2 = 0.2482	0.0641
x2 = 0.2984	0.073
x2 = 0.3495	0.0804
x2 = 0.4012	0.0861
x2 = 0.4503	0.09
x2 = 0.4998	0.0919
x2 = 0.5495	0.0924
x2 = 0.599	0.0911
x2 = 0.6506	0.0872
x2 = 0.6993	0.0831
x2 = 0.7495	0.075
x2 = 0.8007	0.0655
x2 = 0.8507	0.0533
x2 = 0.8993	0.0387
x2 = 0.9498	0.0207

CCc1ccccc1 [ethylbenzene]
Conditions	mass density [kg/m3]
[1]	862.5

CCc1ccccc1 [ethylbenzene] + COC(=O)OC
[2]
Conditions	excess molar enthalpy [kcal/mol]
x2 = 0.0501	0.0215
x2 = 0.1003	0.0489
x2 = 0.149	0.0639
x2 = 0.201	0.0848
x2 = 0.2512	0.104
x2 = 0.2998	0.119
x2 = 0.3525	0.133
x2 = 0.4005	0.143
x2 = 0.4524	0.15
x2 = 0.5025	0.153
x2 = 0.5507	0.153
x2 = 0.602	0.151
x2 = 0.6513	0.145
x2 = 0.7011	0.135
x2 = 0.7512	0.123
x2 = 0.8012	0.106
x2 = 0.8513	0.0865
x2 = 0.9012	0.0623
x2 = 0.9509	0.0335
